According to publication PMC10341795, “N-Methyl Costaricine and Costaricine, Two Potent Butyrylcholinesterase Inhibitors from Alseodaphne pendulifolia Gamb” (International Journal of Molecular Sciences, 2023):
“Also recorded” adds a separate entry of the source. Like-named read-outs stand apart in the source and are kept apart here.

What was measured:
[1] = molecular target: T1, AChE from Electrophorus electricus (Electrophorus electricus, UniProt O42275); test: biochemical; details: for Selectivity Index AChE: IC50 (BChE)/IC50 (AChE); for inhibition at 100 µM: read-out: Percentage Inhibition at 100 µM, AChE, 100 µM
T1 construct: purchased Sigma-Aldrich Co. LLC; (St. Louis, MO, USA)
Description: (§1) The cholinesterase inhibitory activities of the extracts and fompounds 1–6 were performed as previously described. AChE from Electrophorus electricus and BChE from equine serum were purchased from Sigma-Aldrich Co. LLC. (St. Louis, MO, USA). An amount of 0.1 M of sodium phosphate buffer (pH 8) was added to a 96-well microplate followed by the sample and 1U of the AChE or BChE. Then, 10 mM of 5,5′-dithiobis(2-nitrobenzoic acid) (DTNB) was added followed by 14 mM of acetylthiocholine iodide or S-butyrylthiocholine chloride. The final concentration of DMSO was 1%.

[2] = molecular target: T2, BChE from equine serum (Equus caballus, UniProt P81908); test: biochemical; format: biochemical; details: for Selectivity Index BChE: IC50 (AChE)/IC50 (BChE); for BChE potency relative to galantamine: comparison of IC50 values; for Cholinesterase selectivity (in words): from selectivity indices, AChE vs BChE; for inhibition at 100 µM: read-out: Percentage Inhibition at 100 µM, BChE, 100 µM
T2 construct: AChE from Electrophorus electricus and BChE from equine serum were purchased from Sigma-Aldrich Co. LLC; purchased Sigma-Aldrich Co. LLC; (St. Louis, MO, USA); host or cells: equine serum
Description: as §1

[3] = molecular target: T3, BChE (Equus caballus, UniProt P81908); test: Enzyme kinetic study against BChE (Lineweaver-Burk and secondary plots); format: biochemical; details: for Mode of inhibition against BChE: Lineweaver-Burk plot
T3 construct: AChE from Electrophorus electricus and BChE from equine serum were purchased from Sigma-Aldrich Co. LLC; purchased Sigma-Aldrich Co. LLC; (St. Louis, MO, USA); host or cells: equine serum
Description: as §1, with “1%. Galanthamine was used as the standard for validation and result comparison. The absorbance was measured using a Tecan Infinite 200 Pro Microplate Spectrometer at 412 nm for 30 min.” for “1%.”
The enzyme kinetic studies of compounds 1 and 2 against BChE were performed in a similar manner to the in vitro BChE inhibition assay. The enzyme inhibition kinetic was carried out in the presence of three concentrations of the inhibitors, compounds 1 and 2, at various concentrations of the substrate, S-butyrylthiocholine chloride by constructing a Lineweaver–Burk plot (reciprocal plots of 1/V versus 1/[S]). The inhibition constant (Ki) was estimated from the secondary plot of the Lineweaver–Burk plot.

T1 sequence (O42275 24-633): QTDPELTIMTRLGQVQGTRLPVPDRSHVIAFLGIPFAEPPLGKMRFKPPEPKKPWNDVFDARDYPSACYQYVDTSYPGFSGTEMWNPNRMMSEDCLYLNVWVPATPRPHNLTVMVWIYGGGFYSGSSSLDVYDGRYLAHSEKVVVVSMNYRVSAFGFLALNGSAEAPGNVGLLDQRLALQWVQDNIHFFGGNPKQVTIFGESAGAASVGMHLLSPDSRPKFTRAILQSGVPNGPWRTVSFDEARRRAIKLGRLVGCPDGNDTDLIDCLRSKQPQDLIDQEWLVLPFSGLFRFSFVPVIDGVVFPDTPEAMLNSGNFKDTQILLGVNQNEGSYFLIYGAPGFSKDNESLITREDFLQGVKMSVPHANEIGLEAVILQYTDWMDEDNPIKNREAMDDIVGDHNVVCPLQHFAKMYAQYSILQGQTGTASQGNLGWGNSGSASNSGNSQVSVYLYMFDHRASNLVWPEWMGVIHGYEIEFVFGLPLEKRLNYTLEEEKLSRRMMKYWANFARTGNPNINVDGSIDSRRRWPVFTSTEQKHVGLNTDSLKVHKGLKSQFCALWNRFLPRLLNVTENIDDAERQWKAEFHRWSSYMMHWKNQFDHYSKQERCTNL
T3 sequence (P81908 whole entry): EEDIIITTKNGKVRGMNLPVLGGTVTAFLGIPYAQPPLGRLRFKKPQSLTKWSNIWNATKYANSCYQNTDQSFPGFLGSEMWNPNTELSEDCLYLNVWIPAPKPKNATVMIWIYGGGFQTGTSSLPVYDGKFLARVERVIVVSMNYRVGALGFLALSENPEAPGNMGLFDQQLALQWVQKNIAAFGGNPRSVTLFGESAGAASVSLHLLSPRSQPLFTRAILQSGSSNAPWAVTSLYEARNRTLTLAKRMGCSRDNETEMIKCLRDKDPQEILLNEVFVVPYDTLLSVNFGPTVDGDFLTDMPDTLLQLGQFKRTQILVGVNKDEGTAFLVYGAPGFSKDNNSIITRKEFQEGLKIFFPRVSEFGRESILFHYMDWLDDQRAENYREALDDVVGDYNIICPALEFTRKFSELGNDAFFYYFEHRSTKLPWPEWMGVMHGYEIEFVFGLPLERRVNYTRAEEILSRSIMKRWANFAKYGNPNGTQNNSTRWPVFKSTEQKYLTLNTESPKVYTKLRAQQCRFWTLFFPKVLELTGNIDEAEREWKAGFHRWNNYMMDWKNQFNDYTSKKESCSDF
T2 sequence (P81908 whole entry): as above

| Compound | Selectivity Index AChE [1] | IC50 ([1]; mean ± SD (n = 3), read-out: IC50 AChE) | inhibition at 100 µM ([1]; mean ± SD (n = 3)) | Selectivity Index BChE [2] | BChE potency relative to galantamine [2] | Cholinesterase selectivity (in words) [2] | IC50 ([2]; mean ± SD (n = 3), read-out: IC50 BChE) | Mode of inhibition against BChE [3] | Ki ([3]; derived from secondary plots of Lineweaver-Burk plots, read-out: Inhibition constant Ki against BChE) | IC50 [1] | IC50 [2] | Ki [3] | Fold higher affinity to BChE compared to compound 1 ([3]; ratio of Ki values) | inhibition at 100 µM ([2]; mean ± SD (n = 3)) |
| --- | --- | --- | --- | --- | --- | --- | --- | --- | --- | --- | --- | --- | --- | --- |
| COc1cc2c(cc1O)C(Cc1ccc(Oc3cc(CC4c5cc(O)c(OC)cc5CCN4C)ccc3OC)cc1)NCC2 (stereo not shown) [Compound 1, N-methyl costaricine] | 0.15 | 22.8 ± 1.25 µM | > 70% | 6.48 | two-fold more potent than galantamine | BChE selective inhibitors | 3.51 ± 0.8 µM | mixed-mode inhibitors; also recorded: mixed-mode inhibition | 0.67 µM |  |  |  |  |  |
| COc1cc2c(cc1O)[C@@H](Cc1ccc(Oc3cc(C[C@H]4NCCc5cc(OC)c(O)cc54)ccc3OC)cc1)NCC2 [Compound 2, costaricine] | 0.17 |  | > 70% | 6.03 | two-fold more potent than galantamine | BChE selective inhibitors |  | mixed-mode inhibitors; also recorded: mixed-mode inhibition |  | 17.5 ± 2.16 µM | 2.9 ± 0.56 µM | 0.05 µM | 13 fold |  |
| COc1ccc2c(c1OC)-c1c(OC)c(OC)cc3c1C(C2)NCC3 (stereo not shown) [Compound 3, hernagine] |  |  | < 10% |  |  |  |  |  |  |  | 32.9 ± 0.99 µM |  |  | 88.87 ± 0.56% |
| COc1ccc2c(c1OC)-c1c(OC)c(OC)cc3c1C(C2)N(C)CC3 (stereo not shown) [Compound 4, N-methyl hernagine] |  |  | 23.1 ± 8.39% |  |  |  |  |  |  |  | 49.7 ± 3.95 µM |  |  | 77.8 ± 3.73% |
| COc1cc2c3c(c1O)-c1c(ccc(OC)c1OC)C[C@@H]3N(C)CC2 [Compound 5, corydine] |  |  | 29.7 ± 1.85% |  |  |  |  |  |  |  | 52.9 ± 4.11 µM |  |  | 77.9 ± 1.73% |
